Laboratory results: patent publication US8722629B2, “Auristatin derivatives and use thereof” (Seattle Genetics, Inc., priority 2010, dated 2014)
Counter-ions that a name gives are not always drawn. Starred links: 1 amine or outer side, 2 acyl side, 3 side chain; linkers in the order of their positions; H or OH if unused. Non-standard residues stand in square brackets, D forms with d. Residues, ends and D or L forms follow the SMILES beside them. *: point of attachment. Dolaproine = CO[C@@H]([C@@H]1CCCN1)[C@@H](C)C(=O)O; X2 = C[C@@H](c1ccccc1)[C@H](N[*:1])C(=O)[*:2]; X1 = O=C([C@]1(N[*:1])C[C@@H]1c1ccccc1)[*:2]; Dil = CC[C@H](C)[C@H](NC)[C@@H](CC(=O)O)OC; Oxazinan2yl(1,2) = C1CCN(*)OC1; NMeV = CN[C@H](C(=O)O)C(C)C; X3 = c1ccc2c(c1)CON(*)C2

Legend:
[1] = tested on: human renal cancer cell line 786-0; test: Antiproliferative effect on the 786-0 RCC cell line (MTT assay); format: cell-based; details: Homo sapiens, 786-0, 786-0 cells, incubation 48 h to 96 h
Procedure: B-1. Determination of the Antiproliferative Effect on the 786-0 RCC Cell Line:
A defined cell number of the human renal cancer cell line 786-0 was sown in a 96-well microtiter plate in complete medium (2500 or 7000 cells/well) and incubated at 37° C./5% CO2 overnight. After 18 h, the sowing medium was replaced by serum-free medium or medium with 2% FCS. Treatment was initiated by addition of the respective test substance in varying concentration (10^−5 M to […]). The chosen incubation times were from 48 h to 96 h. Proliferation was determined with the aid of the MTT assays (ATCC, Manassas, Va., USA, catalogue No. 30-1010K). After the incubation time, the MTT reagent was incubated with the cells for 4 h, and the cells were subsequently lysed by adding the detergent overnight. The dye formed was detected at 570 nm. […] The data obtained from this test are triple determinations, and at least two independent experiments were carried out.

[2] = tested on: human colon carcinoma cell line HT29 wt (wild type); test: Antiproliferative effect on the HT29 wt cell line (MTT assay); format: cell-based; details: Homo sapiens, HT-29, HT29 wt cells, 10% FCS, incubation 48 h to 96 h
Procedure: B-2. Determination of the Antiproliferative Effect on the HT29 Wt Cell Line:
A defined cell number of the human colon carcinoma cell line HT29 wt (wild type) was sown in a 96-well microtiter plate in complete medium (10% FCS-RPMI) (2500 cells/well) and incubated at 37° C./5% CO2 overnight. After 18 h, the sowing medium was replaced by fresh medium with 10% FCS. Treatment was initiated by addition of the respective test substance. From the substances to be investigated, dose/activity curves in a concentration range of from 10^−5 M to 10^−14 M (1:10-dilution series) were determined. The chosen incubation times were from 48 h to 96 h. Pro-liferation was determined with the aid of the MTT assays (ATCC, Manassas, Va., USA, catalogue No. 30-1010K). After the incubation time, the MTT reagent was incubated with the cells for 4 h, and the cells were subsequently lysed by adding the detergent overnight. The dye formed was detected at 570 nm. Proliferation of cells which had not been treated with test substance, but had otherwise been treated identically, was defined as 100%. The data obtained from this test are triple determinations, and at least two independent experiments were carried out.

[3] = Plasma stability in vitro, human plasma; format: in vitro ADME
Procedure: (§1) B-4. Determination of the Plasma Stability in vitro:
(§2) 1 mg of the test substance in question was dissolved in 0.5 ml of acetonitrile/DMSO (9:1). From this solution, 20 μl were removed and added to 1 ml of rat or human plasma at 37° C. (plasma of male Wistar rats with Li heparin from Harlan & Winkelmann or fresh human leukocyte-depleted plasma originating from a whole blood sample). From this plasma solution, which was shaken vigorously, 100 μl aliquots were removed immediately after addition of the sample (initial value as reference) and then after 5, 10, 30, 60, 120, 180 and 240 minutes and optionally after 24 hours and added to 300 μl of acetonitrile. The precipitated plasma proteins were removed by centrifugation at 5000 rpm for 10 minutes, and 30 μl of the supernatant were analysed by HPLC for its content of unmodified test substance. Quantification was via the area percentages of the corresponding peaks.
HPLC Method for Human Plasma:
Instrument: Agilent 1100 with DAD, binary pump, autosampler, column oven and thermostat;
column: Kromasil 100 C18, 250 mm×4 mm, 5 μm; column temperature: 45° C.; mobile phase A: 5 ml of perchloric acid/1 of water, mobile phase B: acetonitrile; gradient: 0-3 min 98% A, 2% B; 3-10 min 65% A, 35% B; 10-15 min 40% A, 60% B; 15-21 min 10% A, 90% B; 21-22 min 10% A, 90% B; 22-24 min 98% A, 2% B; 24-26 min 98% A, 2% B; flow rate: 2 ml/min; UV detection: 220 nm.
(§3) The test substance was incubated in rat or human plasma at 37° C. over a period of 5 h with gentle stirring. At different points in time (0, 2, 5, 10, 20, 30, 60, 120, 180 and 300 minutes), a 100 μl aliquot was removed. Following addition of internal standard (10 μl), the proteins were precipitated by addition of 200 μl of acetonitrile and the mixture was centrifuged in an Eppendorf centrifuge for 5 minutes. After addition of 150 μl of ammonium acetate buffer pH 3 to 150 μl of the supernatant, the content of unmodified test substance was analysed by LC/MSMS.

[4] = Plasma stability in vitro, rat plasma; format: in vitro ADME; details: 37° C.; for half-life at 39.2 µg/ml: male, Wistar, rat plasma (Li heparin), Method A (HPLC)
Procedure: as §1, §2
HPLC Method for Rat Plasma:
Instrument: Agilent 1200 with DAD, binary pump, autosampler, column oven and thermostat; column: Kromasil 100 C18, 250 mm×4 mm, […]; column temperature: 45° C.; mobile phase A: 5 ml of perchloric acid/1 of water, mobile phase B: acetonitrile; gradient: 0-8 min 98% A, 2% B; 8-15 min 56% A, 44% B; […] 10% A, 90% B; 20-21 min 10% A, 90% B; […] 98% A, 2% B; […] 98% A, 2% B; flow rate: 2 ml/min; UV detection: 220 nm.
as §3

| SMILES | IC50 [1] | IC50 [2] | degradation in human plasma after 24 h [3] | half-life ([4]; Method B (LC/MSMS)) | half-life at 39.2 µg/ml [4] | t1/2 ([4]; Method A) | degraded in human plasma during 24 h [3] |
| --- | --- | --- | --- | --- | --- | --- | --- |
| CC[C@H](C)[C@@H]([C@@H](CC(=O)N1CCC[C@H]1[C@H](OC)[C@@H](C)C(=O)N[C@@H](Cc1ccccc1)C(=O)N1CCCCO1)OC)N(C)C(=O)[C@@H](NC(=O)[C@@H](NC)C(C)C)C(C)C [Example 1, N-Methyl-L-valyl-N-[(3R,4S,5S)-3-methoxy-1-{(2S)-2-[(1R,2R)-1-methoxy-2-methyl-3-{[(2S)-1-(1,2-oxazinan-2-yl)-1-oxo-3-phenylpropan-2-yl]amino}-3-oxopropyl]pyrrolidin-1-yl}-5-methyl-1-oxoheptan-4-yl]-N-methyl-L-valinamide, trifluoroacetic acid salt] (H-[NMeV]V[Dil][Dolaproine]F-{Oxazinan2yl(1,2)}) | 4 nM | 0.1 nM | no degradation was observed | – | – | – | – |
| CC[C@H](C)[C@@H]([C@@H](CC(=O)N1CCC[C@H]1[C@H](OC)[C@@H](C)C(=O)N[C@H](C(=O)N1CCCCO1)[C@@H](C)c1ccccc1)OC)N(C)C(=O)[C@@H](NC(=O)[C@@H](NC)C(C)C)C(C)C [Example 4, N-Methyl-L-valyl-N-[(3R,4S,5S)-3-methoxy-1-{(2S)-2-[(1R,2R)-1-methoxy-2-methyl-3-{[(2S,3S)-1-(1,2-oxazinan-2-yl)-1-oxo-3-phenylbutan-2-yl]amino}-3-oxopropyl]pyrrolidin-1-yl}-5-methyl-1-oxoheptan-4-yl]-N-methyl-L-valinamide, trifluoroacetic acid salt] (H-[NMeV]V[Dil][Dolaproine][X2]-{Oxazinan2yl(1,2)}) | 14 nM | 0.2 nM | – | 3 h | – | – | – |
| CC[C@H](C)[C@@H]([C@@H](CC(=O)N1CCC[C@H]1[C@H](OC)[C@@H](C)C(=O)N[C@@]1(C(=O)N2CCCCO2)C[C@@H]1c1ccccc1)OC)N(C)C(=O)[C@@H](NC(=O)[C@@H](NC)C(C)C)C(C)C [Example 17, N-Methyl-L-valyl-N-[(3R,4S,5S)-3-methoxy-1-{(2S)-2-[(1R,2R)-1-methoxy-2-methyl-3-{[(1S,2R)-1-(1,2-oxazinan-2-ylcarbonyl)-2-phenylcyclopropyl]amino}-3-oxopropyl]pyrrolidin-1-yl}-5-methyl-1-oxoheptan-4-yl]-N-methyl-L-valinamide, trifluoroacetic acid salt] (H-[NMeV]V[Dil][Dolaproine][X1]-{Oxazinan2yl(1,2)}) | 4 nM | 0.5 nM | no degradation was observed | – | > 24 h | – | – |
| CC[C@H](C)[C@@H]([C@@H](CC(=O)N1CCC[C@H]1[C@H](OC)[C@@H](C)C(=O)N[C@@]1(C(=O)N2Cc3ccccc3CO2)C[C@@H]1c1ccccc1)OC)N(C)C(=O)[C@@H](NC(=O)[C@@H](NC)C(C)C)C(C)C [Example 18, N-Methyl-L-valyl-N-[(3R,4S,5S)-1-{(2S)-2-[(1R,2R)-3-{[(1S,2R)-1-(1,4-dihydro-3H-2,3-benzoxazin-3-ylcarbonyl)-2-phenylcyclopropyl]amino}-1-methoxy-2-methyl-3-oxopropyl]pyrrolidin-1-yl}-3-methoxy-5-methyl-1-oxoheptan-4-yl]-N-methyl-L-valinamide, trifluoroacetic acid salt] (H-[NMeV]V[Dil][Dolaproine][X1]-X3) | – | 1.2 nM | – | – | > 24 h | – | – |
| CC[C@H](C)[C@@H]([C@@H](CC(=O)N1CCC[C@H]1[C@H](OC)[C@@H](C)C(=O)N[C@H](Cc1ccccc1)C(=O)N1CCCCO1)OC)N(C)C(=O)[C@@H](NC(=O)[C@@H](NC)C(C)C)C(C)C [Example 21, N-Methyl-L-valyl-N-[(3R,4S,5S)-3-methoxy-1-{(2S)-2-[(1R,2R)-1-methoxy-2-methyl-3-{[(2R)-1-(1,2-oxazinan-2-yl)-1-oxo-3-phenylpropan-2-yl]amino}-3-oxopropyl]pyrrolidin-1-yl}-5-methyl-1-oxoheptan-4-yl]-N-methyl-L-valinamide, trifluoroacetic acid salt] (H-[NMeV]V[Dil][Dolaproine][dF]-{Oxazinan2yl(1,2)}) | – | – | no degradation was observed | – | – | – | – |
| CC[C@H](C)[C@@H]([C@@H](CC(=O)N1CCC[C@H]1[C@H](OC)[C@@H](C)C(=O)N[C@@]1(C(=O)N2CCCCO2)C[C@@H]1c1ccccc1)OC)N(C)C(=O)[C@@H](NC(=O)[C@H](C(C)C)N(C)CCCC(=O)O)C(C)C [Example 23, N-(3-Carboxypropyl)-N-methyl-L-valyl-N-[(3R,4S,5S)-3-methoxy-1-{(2S)-2-[(1R,2R)-1-methoxy-2-methyl-3-{[(1S,2R)-1-(1,2-oxazinan-2-ylcarbonyl)-2-phenylcyclopropyl]amino}-3-oxopropyl]-pyrrolidin-1-yl}-5-methyl-1-oxoheptan-4-yl]-N-methyl-L-valinamide] | 11 nM | 0.7 nM | – | – | > 24 h | – | – |
| CC[C@H](C)[C@@H]([C@@H](CC(=O)N1CCC[C@H]1[C@H](OC)[C@@H](C)C(=O)N[C@@H](Cc1ccccc1)C(=O)OC)OC)N(C)C(=O)[C@@H](NC(=O)[C@@H](NC)C(C)C)C(C)C [MMAF-OMe, Monomethylauristatin F methyl ester, reference compound] (H-[NMeV]V[Dil][Dolaproine]F-OMe) | – | – | – | – | – | < 1 min | about 20% |
